In experiment [1] the target is T1, truncated His-MBP-Tev-KLHDC2 (residues 1-363) (Homo sapiens, UniProt Q9Y2U9).
T1 construct: truncated His -MBP-Tev-KLHDC2 (residues 1-363) purified from E. coli; made in house; host or cells: E. coli
T1 sequence (Q9Y2U9 1-363): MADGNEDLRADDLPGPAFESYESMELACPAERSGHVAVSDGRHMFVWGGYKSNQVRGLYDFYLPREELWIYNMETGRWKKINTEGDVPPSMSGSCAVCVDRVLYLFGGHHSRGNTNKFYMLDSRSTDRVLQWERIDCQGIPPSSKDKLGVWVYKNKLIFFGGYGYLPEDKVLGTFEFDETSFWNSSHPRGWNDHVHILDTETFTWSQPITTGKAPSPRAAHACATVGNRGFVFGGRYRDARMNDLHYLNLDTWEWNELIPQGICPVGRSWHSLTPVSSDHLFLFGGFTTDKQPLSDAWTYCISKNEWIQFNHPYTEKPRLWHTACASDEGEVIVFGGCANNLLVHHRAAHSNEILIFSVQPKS
Description: KLHDC2 FP competition binding assay. The settings on record: 15 nM KLHDC2 (residues 1-363), 10 nM fluorescein-labeled diglycine peptide probe, read-out: KLHDC2 binding Human FP: average external IC50.
Description: FP competition binding assays were performed using 15 nM truncated His -MBP-Tev-KLHDC2 (residues 1-363) purified from E. coli, 10 nM fluorescein-labeled diglycine peptide probe, and test compounds in assay buffer consisting of 50 mM HEPES-Na pH 7.5, 100 mM NaCl, 2 mM DTT, 0.005% Tween-20 with a final volume of 20 uL. Compound stocks were dissolved at 10 mM in 100% DMSO and 11 point titration with 3 fold serial dilution was performed in black, flat bottom 384 well microplates. Plates were incubated at room temperature for 30 minutes. Plates were centrifuged at 1000 rpm for 1 min, data were collected using an Envision plate reader in fluorescence polarization mode with excitation filter FITC FP at 480 nm, emission filter FITC FP P-pol at 535 nm and FITC FP S-pol at 535 nm. FP signal was calculated using the equation (mP=1000*(S-G*P)/(S+G*P), G-factor=1.0) and % Inhibition was calculated using no-protein controls for 100% inhibition and DMSO only reactions for 0l % inhibition (yes).

The target of experiment [2] is T1, truncated His-MBP-Tev-KLHDC2 (residues 1-363). Briefly: KLHDC2 HTRF binding assay. The settings on record: 1 nM KLHDC2 (residues 1-363), fluorescein-labeled diglycine peptide probe. (Time-resolved FRET reads energy transfer from a long-lived donor to a nearby acceptor.)
Description: HTRF binding assays were performed using 1 nM truncated His -MBP-Tev-KLHDC2 (residues 1-363) purified from E. coli, 0.2 nM terbium-anti-His antibody (CisBio), 1 nM fluorescein-labeled diglycine peptide probe, and test compounds in assay buffer consisting of 50 mM HEPES-Na pH 7.5, 100 mM NaCl, 2 mM DTT, 0.005% Tween-20 with a final volume of 20 uL. Compound stocks were dissolved at 10 mM in 100% DMSO and 11 point titration with 3 fold serial dilution was performed in white, opaque 384 well microplates. Reaction plates were incubated at room temperature for 30 minutes. Plates were centrifuged at low rpm for 5 mins, and the ratio of fluorescence intensities were measured at emission wavelengths for fluorescein acceptor (520 nm) and terbium donor (495 nm) on Envision Plate reader. % Inhibition was calculated from the 520/495 ratio generated by the no protein controls for 100% inhibition and DMSO only reactions for 0l % inhibition.
In experiment [3] the target is T2, BRD4 (Homo sapiens, UniProt O60885).
T2 construct: endogenous in cells; host or cells: HEK293
Description: BRD4 degradation in HEK293 cells (Western blot). The settings on record: lysed after 24, Western blot. Type of experiment: cell-based. How it is done:
On day 1, 6.25×10^5 HEK293 cells were seeded per well into a 12-well plate. After 24, cells were lysed in wells with 80 ul of pre-chilled RIPA Lysis buffer (Beyotime, P0013B) with protease/phosphatase inhibitor (Roche 4693116001/Roche 04906837001) for 20 min at 4 degree on a rocker, then spun down at 20,000g at 4 degree for 10 min and the BCA assay was run. 39 ul of supernatant was transferred to a fresh EP tube containing 15 ul of 4X LDS loading buffer and 6 ul 10X reducing agent to make the loading samples. The samples were then heated to 70° C. for 10 minutes, cooled to RT, and stored under−20° C. Samples were loaded with equal amount of protein onto 4-12% Bis -Tris SDS-PAGE 26 wells gel (Novex, WG1403BOX) and the gel was run for 1.5 hours at 120 V. Electrotransfer to NC membrane was completed using wet-transfer method with 250 mA for 80 min and the membrane was blocked in 5% BSA (Solarbio,A8020) with 1X TBST for 1 hour. The samples were incubated with primary antibody prepared in blocking buffer (LI-COR, 927-60001) at 4° C. overnight and the membrane was washed three times with 1X TBST, 5 minutes each. Incubate with secondary antibody for 1 hour at RT (anti-rabbit IgG (Licor,926-32211) 1:5000; anti-mouse IgG (LI-COR, 926-68070)1:5000). The membrance was then washed three times with 1X TBST, 5 minutes each and once with RO H2O, then read on LiCOR.

This note sets out measurements from US20250214969A1, “PROTEIN DEGRADERS AND USES THEREOF” (Kymera Therapeutics, Inc., priority 2022, published 2025).

Consider `CN(C)C(=O)c1ccc(-c2ccc(=O)n(CC(=O)O)c2)cc1F` [I-384], for which the IC50 in experiment [1] and in experiment [2] was more than 5 µM each time.
Consider `CS(=O)(=O)c1cccc(-c2ccc(=O)n(CC(=O)O)c2)c1` [I-385], for which the IC50 in experiment [1] and in experiment [2] was more than 5 µM each time.
As to `O=C(O)Cn1cc(-c2ccc3cn[nH]c3c2)ccc1=O` [I-386], the IC50 in experiment [1] and in experiment [2] was more than 5 µM throughout.
In the case of `O=C(O)Cn1cc(-c2ccc3[nH]ncc3c2)ccc1=O` [I-387], the IC50 in experiment [1] and in experiment [2] was more than 5 µM throughout.
For the compound `CN(C)C(=O)c1ccc(-c2ccc(=O)n(CC(=O)O)c2)cc1Cl` [I-388], the IC50 in experiment [1] and in experiment [2] was more than 5 µM each time.
Consider `O=C(O)Cn1cc(-c2cc(F)c(O)c(F)c2)ccc1=O` [I-389], for which the IC50 in experiment [1] and in experiment [2] was more than 5 µM throughout.
In the case of `Cc1ccc(C)c(-c2cccn(CC(=O)O)c2=O)c1` [I-390], the concentration for half-maximal inhibition (IC50) in experiment [1] and in experiment [2] was more than 5 µM each time.
As to `Cc1cccc(-c2cccn(CC(=O)O)c2=O)c1` [I-391], the IC50 in experiment [1] and in experiment [2] was more than 5 µM in each case.
On to `O=C(O)Cn1cc(-c2ccc(C(=O)N3CCOCC3)cc2)ccc1=O` [I-392], for which the IC50 in experiment [1] and in experiment [2] was more than 5 µM in each case.
In the case of `CN(C)C(=O)c1ccc(-c2ccc(=O)n(CC(=O)O)c2)cc1` [I-393], the IC50 in experiment [1] and in experiment [2] was more than 5 µM each time.
In the case of `CS(=O)(=O)c1ccccc1-c1ccc(=O)n(CC(=O)O)c1` [I-394], the IC50 in experiment [1] and in experiment [2] was more than 5 µM throughout.
With `O=C(O)Cn1cc(-c2ccccc2F)ccc1=O` [I-395], the concentration for half-maximal inhibition (IC50) in experiment [1] and in experiment [2] was more than 5 µM each time.
Regarding `COc1cc(F)cc(-c2ccc(=O)n(CC(=O)O)c2)c1` [I-396], the IC50 in experiment [1] and in experiment [2] was more than 5 µM each time.
As for `Cc1ccc(Cl)cc1-c1ccc(=O)n(CC(=O)O)c1` [I-401], the IC50 in experiment [1] and in experiment [2] was more than 5 µM each time.
Regarding `Cc1cccc(C)c1-c1ccc(=O)n(CC(=O)O)c1` [I-404], the IC50 in experiment [1] and in experiment [2] was more than 5 µM throughout.
Regarding `O=C(O)Cn1cc(-c2ccccc2O)ccc1=O` [I-406], the IC50 in experiment [1] and in experiment [2] was more than 5 µM throughout.
As for `Cc1cc(C)cc(-c2ccc(=O)n(CC(=O)O)c2)c1` [I-408], the IC50 in experiment [1] and in experiment [2] was more than 5 µM throughout.
In the case of `O=C(O)Cn1cc(-c2cccc3ccccc23)ccc1=O` [I-409], the IC50 in experiment [1] and in experiment [2] was more than 5 µM each time.
Regarding `Cc1ccc(C)c(-c2ccc(=O)n(CC(=O)O)c2)c1` [I-419], the IC50 in experiment [1] and in experiment [2] was more than 5 µM in each case.
Consider `O=C(O)Cn1cc(-c2cccc(F)c2)ccc1=O` [I-420], for which the IC50 in experiment [1] and in experiment [2] was more than 5 µM throughout.
Regarding `Cc1cccc(-c2ccc(=O)n(CC(=O)O)c2)c1` [I-422], the IC50 in experiment [1] and in experiment [2] was more than 5 µM each time.
As to `O=C(O)Cn1cc(-c2cccs2)ccc1=O` [I-424], the half-maximal inhibitory concentration (IC50) in experiment [1] and in experiment [2] was more than 5 µM throughout.
Regarding `O=C(O)Cc1ccccc1O` [I-425], the IC50 in experiment [1] and in experiment [2] was more than 5 µM throughout.
For `Cc1ccc2c(c1C)NC(C(=O)O)C1CC=CC21` (stereo not shown) [I-426], the IC50 in experiment [1] and in experiment [2] was more than 5 µM in each case.
As for `Nc1ccc(F)c2c(O)n[nH]c12` [I-427], the IC50 (as a rule, the point on the concentration scale where inhibition reaches its midpoint) was more than 5 µM in experiment [1] and 0.5 to 5 µM in experiment [2].
Consider `O=C(O)Cn1ccccc1=O` [I-428], for which the IC50 in experiment [1] and in experiment [2] was more than 5 µM in each case.
Regarding `O=C(O)Cn1cc(C(F)(F)F)ccc1=O` [I-429], the IC50 in experiment [1] and in experiment [2] was more than 5 µM throughout.
`COc1cc(-c2ccc(F)c(CCCCCCCCCNC(=O)C[C@@H]3N=C(c4ccc(Cl)cc4)c4c(sc(C)c4C)-n4c(C)nnc43)c2)ccc1C(=O)Nc1ccc(=O)n(CC(=O)O)c1` [I-469]: the IC50 in experiment [1] lay in the range of 0.05 to 0.5 µM; in experiment [2], 0.5 to 5 µM.
On to `COc1cc(-c2ccc(CCCCCCCCCNC(=O)C[C@@H]3N=C(c4ccc(Cl)cc4)c4c(sc(C)c4C)-n4c(C)nnc43)cc2)ccc1C(=O)Nc1ccc(=O)n(CC(=O)O)c1` [I-470], for which the IC50 in experiment [1] lay in the range of 0.05 to 0.5 µM; in experiment [2] it was 0.5 to 5 µM.
With `Cc1sc2c(c1C)C(c1ccc(Cl)cc1)=N[C@@H](CC(=O)NCCCCCCc1ccc(C(=O)Nc3ccc(=O)n(CC(=O)O)c3)cc1-c1cccnc1)c1nnc(C)n1-2` [I-473], the IC50 in experiment [1] was less than 0.05 µM; in experiment [2], 0.05 to 0.5 µM.
In the case of `Cc1sc2c(c1C)C(c1ccc(Cl)cc1)=N[C@@H](CC(=O)NCCCCCCn1ccc3c(C(=O)Nc4ccc(=O)n(CC(=O)O)c4)cccc31)c1nnc(C)n1-2` [I-474], the IC50 in experiment [1] and in experiment [2] was less than 0.05 µM throughout.
As to `Cc1sc2c(c1C)C(c1ccc(Cl)cc1)=N[C@@H](CC(=O)NCCCCCCc1ccncc1-c1cccc(C(=O)Nc3ccc(=O)n(CC(=O)O)c3)c1)c1nnc(C)n1-2` [I-475], the figures for the half-maximal inhibitory concentration (IC50) in experiment [1] and in experiment [2] were less than 0.05 µM and 0.05 to 0.5 µM, respectively.
In the case of `Cc1sc2c(c1C)C(c1ccc(Cl)cc1)=N[C@@H](CC(=O)NCCCCCCc1cc(C(=O)Nc3ccc(=O)n(CC(=O)O)c3)cc(-c3cccnc3)c1)c1nnc(C)n1-2` [I-476], the figures for the IC50 in experiment [1] and in experiment [2] were less than 0.05 µM and 0.05 to 0.5 µM, respectively.
For the compound `Cc1sc2c(c1C)C(c1ccc(Cl)cc1)=N[C@@H](CC(=O)NCCCCCCc1cncc(-c3cccc(C(=O)Nc4ccc(=O)n(CC(=O)O)c4)c3)c1)c1nnc(C)n1-2` [I-477], the IC50 in experiment [1] and in experiment [2] was less than 0.05 µM each time.
Consider `Cc1sc2c(c1C)C(c1ccc(Cl)cc1)=N[C@@H](CC(=O)NCCCCCCCCCCCCCCN(C(=O)C1CCCN(c3cncc4ccccc34)C1)c1ccc(=O)n(CC(=O)O)c1)c1nnc(C)n1-2` (stereo partly shown) [I-481], for which the “KLHDC2-dependent BRD4 degradation” value in experiment [3] (FIG. 4) is “KLHDC2-dependent BRD4 degradation”. In experiment [3] (FIGS. 2-3), the BRD4 degradation result was “BRD4 degradation”.
